Laboratory results from PMC11783601, “Analogue-Sensitive Inhibition of Histone Demethylases Uncovers Member-Specific Function in Ribosomal Protein Synthesis” (Journal of the American Chemical Society, 2025).
Entries after “also recorded” stand apart in the source; their conditions may differ.

Experiments:
[1] = system: 47S rRNA precursor in HEK293T cells; assay: Fluorescence in situ hybridization (FISH) of 47S precursor rRNA; format: cell-based, human; conditions: HEK293T cells expressing F185A
Method: We next examined the mechanistic link between KDM4A-mediated promoter demethylation and rRNA upregulation (Figure 7A). To confirm that KDM4A specifically stimulates rRNA synthesis, we performed fluorescence in situ hybridization (FISH) using a fluoresceine-attached short DNA complementary to the 47S rRNA precursor. Overexpression of wild type KDM4A and its as variant indeed led to increased expression of the precursor rRNA compared to that of the control vector (Figure 7B,C).
(Sigma B2883-25MG) for 30 seconds, washed with PBS and finally adhered to a slide with gelvatol. The cells were imaged at University of Pittsburgh Center for Biological Imaging on an Olympus Fluoview 1000 II, grant number 1S10OD019973-01 using excitation and emission wavelengths corresponding to that of Rhodamine. Images were analyzed on ImageJ open-source software and NIS elements software.
17. Analysis of rRNA expression in HEK293T cells using fluorescence in-situ hybridization HEK293-T cells (ATCC CRL-1573) were grown in a 24 well plate (Corning) on poly-D-lysine (Gibco A3890401) treated glass coverslips (ThermoScientific 12-545-81P) overnight and transfected the next day with 500 ng KDM4A WT/F185A or Empty Vector (EV) equivalent using 1:2 ug of Thermo Turbofect (FERR0531). […] Images were analyzed on ImageJ open-source software and NIS elements software. […]

[2] = HPLC stability of compound in assay buffer; format: physicochemical; conditions: HPLC traces at t=0 hr. and t=5 hr. incubation; integrity confirmed by LC-MS
Method: Supplementary Figure S13. HPLC traces of NOL 6 at t=0 hr. (red) and t=5 hr. (blue) incubation
The compound integrity was further
Supplementary Figure S14. MALDI-TOF spectra for demethylase activity of wild type KDM4C
(A) and KDM4C-F187A mutant (B). In each case, topmost panel is assay without the cofactor
2OG (negative control), middle panel is assay with the cofactor (positive control) and the bottom
mutant completely at 50 µM concentration (B). The demethylase activity of F187A mutant is
(1 picture or pasted object on this page, not shown here)

wild type 2OG enzymes = assay: Off-target activity across wild type 2OG enzymes (MALDI-MS or dot blots); format: biochemical, human; conditions: concentrations up to 200 μM
Excerpt: We sought to examine the orthogonality of compound 6 across the human 2OG enzyme family. […] These amino acids, bulky and hydrophobic in nature, likely act as the gatekeeper and preclude binding of the NOG analogues to wild type enzymes. To test the off-target activity of 6, we recombinantly expressed the catalytic domains of 12 wild type dioxygenases, in addition to KDM4A-E, thus covering 30–40% of human 2OG enzymes known to have well-characterized substrates (Figure 3D).

wild type KDM4A = molecular target: T1, wild type KDM4A (Homo sapiens, UniProt O75164); assay: MALDI-MS end-point demethylase assay on H3K9me3 peptide; format: biochemical
T1 construct: human KDM4A-jmjC domain (catalytic domain of KDM4A); 6xHis (N); host or cells: E. coli BL21 (DE3)
T1 sequence (O75164 142-308 limits assumed): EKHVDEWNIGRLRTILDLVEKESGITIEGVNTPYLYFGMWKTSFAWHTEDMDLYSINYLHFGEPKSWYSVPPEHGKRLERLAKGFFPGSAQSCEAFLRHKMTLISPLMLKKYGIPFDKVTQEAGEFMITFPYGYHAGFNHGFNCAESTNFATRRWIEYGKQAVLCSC
Excerpt: To develop an appropriate inhibitor, we selected N-oxalyl glycine (NOG, 2) scaffold because of its structural similarity with 2OG and the ability to inhibit 2OG-utilizing enzymes including KDMs (Figure 1C).[29]−[31] Substituting −CH2– at C3 of 2OG with −NH– in NOG prevents its oxidative decarboxylation by KDMs, making the inhibitor cofactor-competitive. […] We synthesized a panel of eight NOG analogues (3–10), derived from L-amino acids, carrying varied steric substituents at C4, with the reasoning that a bulky substituent at C4 would selectively fit into the expanded pocket of F185A over wild type KDM4A (Figures 2B and S1–S6, Schemes S1 and S2). The inhibitory effect of each compound was determined based on the extent of enzyme-catalyzed demethylation of a canonical peptide substrate corresponding to the N-terminus of histone 3 carrying trimethylated lysine at position 9 (H3K9me3). […] Such orthogonal inhibition of the engineered demethylase constitutes a powerful chemical probe to study the functions of a specific member of an enzyme family without issues of off-target activity.
assay (Biorad) kit with BSA concentrations as a standard. […]
8. […]
2 mM L-ascorbic acid with a total assay volume of 10 µL. Fe(II) supplement and L-ascorbic acid
Lastly, the 2OG and peptide were
positive mode and analyzed on Bruker FlexAnalysis software. The percent demethylated peptide
the multiple demethylation events on the peptide. […]

Row | Compound | transcription of the 47S precursor rRNA [1] | stability of the compound in assay buffer [2] | inhibition of wild type 2OG enzymes (wild type 2OG enzymes) | inhibition of wild type KDM4A demethylase activity (MALDI-MS) (wild type KDM4A; H3K9me3 peptide, 200 µM 2OG, fixed concentration of NOG analogue) | dose-dependent inhibition of wild type KDM4A (wild type KDM4A; up to 500 μM)
1 | CC(C)CC(NC(=O)C(=O)OCc1cccc(C(F)(F)F)c1)C(=O)O [6B, L-Leu TFMB-ester NOG] | significantly reduced; also recorded: decreased expression of pre-rRNA |  |  |  | 
2 | CC(C)CC(NC(=O)C(=O)O)C(=O)O (centres unmarked) [compound 6, N-oxalyl leucine] |  | confirm the stability | did not inhibit | without affecting | no inhibitory effect; also recorded: does not inhibit
